Source: patent US20150118229A1, “JAK1 SELECTIVE INHIBITOR AND USES THEREOF” (ABBVIE INC., priority 2013, published 2015)

How the values were obtained:
[1] = system: peripheral NK cell counts; assay: Peripheral NK cell counts in healthy rats; assay type: in vivo, rat; conditions: rat
Description: The correlation of this effect with ex vivo cytokine signaling inhibition is shown in the right panel of FIG. 6. These measurements correlated well, confirming the Jak dependency of the NK cell count endpoint.
To establish the relationship between changes in NK cell counts and nonclinical efficacy, the changes in NK cell counts were compared with decreases in rat AIA disease activity per unit exposure.

[2] = system: adjuvant-induced arthritis (paw swelling, bone erosion); assay: Adjuvant-induced arthritis (AIA) in Lewis rats; assay type: in vivo
Description: The inflammation appears in the contra-lateral (left) hind paw seven days after the initial immunization. […] Rats are lightly anesthetized with an inhalant anesthetic (isoflurane) and the contra-lateral (left) hind paw is dipped into the plethysmograph and the paw volume is recorded. The rats are scored every other day up to day 17 after immunization. […] Bone volume and density is determined for a 360 μm (200 slice) vertical section encompassing the tarsal section of the paw. […] Drug exposure is determined in the plasma using LC/MS.

Structure (SMILES): C[C@@H]1CCN(C(=O)CC#N)C[C@@H]1N(C)c1ncnc2[nH]ccc12 [Tofacitinib, reference compound]
- NK Counts (exposure) [1]: 391 ng·h/mL
- NK cell count decrease at about 60% efficacy (inhibition of paw swelling) [1]: about 80%
- efficacious exposure (AUC60), PK/PD modeling ([2]; AIA rats, about 60% inhibition of paw swelling): ~300 ng·h/mL
- AUC60 (60% inhibition of paw swelling), total AUC0-12 ([2]; oral bid, last day of study): 392 ± 121 ng·h/mL
- AUC60, fraction unbound AUC0-12 ([2]; oral bid, last day of study): 300 ± 98 ng·h/mL
- Paw Swelling (exposure) ([2]; rat AIA): 514 ng·h/mL
- inhibition of Paw Swelling reached at about the same level of reticulocyte inhibition ([2]; rat AIA vs reticulocyte deployment): about 60%
